In publication PMC3967968 (Molecular Biology of the Cell, 2014):

Experiments:
human EB1 = conditions: read-out: Kd with human EB1, ref Honnappa et al. 2005; cited from earlier work
MBP-fused Drosophila EB1 = target: T1, MBP-fused Drosophila EB1 (Drosophila, UniProt Q9XZ57 1-290); test: ITC
T1 sequence (looked up): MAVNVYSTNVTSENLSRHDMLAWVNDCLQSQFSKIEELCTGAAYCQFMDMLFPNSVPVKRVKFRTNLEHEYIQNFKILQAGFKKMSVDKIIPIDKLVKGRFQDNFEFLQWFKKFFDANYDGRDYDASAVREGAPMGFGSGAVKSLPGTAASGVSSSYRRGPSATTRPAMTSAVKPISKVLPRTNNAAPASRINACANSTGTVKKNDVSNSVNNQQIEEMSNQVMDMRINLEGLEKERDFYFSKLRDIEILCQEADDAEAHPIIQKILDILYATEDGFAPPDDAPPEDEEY

Molecule: adenomatous polyposis coli protein: native human EB1-interacting protein
- Kd (human EB1): ~5 µM

B1: aptamer Perfect peptide (peptide)
peptide: RTRGRSRIPRWVGRRG
- Kd (MBP-fused Drosophila EB1): ~570 nM
